Measurements from patent US20240285646A1, “METHODS AND COMPOSITIONS FOR LIPID FORMULATION OF LIPOPHILIC SMALL MOLECULE THERAPIES OF THE HETEROCYCLIC TYPE” (Neuronascent, Inc., priority 2021, published 2024).
Where “and” joins values, the source holds several entries; their conditions need not be identical. Identical values can stand only once.

Columns and labels:
[1] = Phase 1A pharmacokinetics of oral NNI-362 in 1% methylcellulose suspension (Cohorts A-E); type: in vivo, human
Procedure: (§1) A Phase 1A, randomized, placebo-controlled, single and multiple dose, dose-escalation study was conducted to evaluate the safety, tolerability and pharmacokinetics of oral NNI-362 in healthy aged volunteers 50 to 72 years of age. Subjects were fasted prior to dose administration. The plasma concentrations of NNI-362 were determined by a validated bioanalytical method using liquid chromatography-tandem mass spectrometry (LC-MS/MS). The analytical range was 25.0-25000 pg/ml, with 0.0500 ml sample volumes. The stable label d5-NNI-362 was used as the internal standard for this assay.
(§2) NNI-362 was formulated in 1% (w/v) methylcellulose in sterile water as an oral suspension that was administered to Cohorts A-E. NNI-362 was administered in a lipid-based formulation (medium-chain triglycerides, Kolliphor EL and beeswax; 95/3/2%; NNI-362 added to provide 120 mg/ml) oral suspension) for Cohorts F and G.
(§3) PK data analysis was performed on the measurable plasma concentrations of NNI-362. The plasma concentration data were evaluated using Phoenix 64® WinNonlin® software (Version 8.3) to perform noncompartmental analysis. Nominal blood collection times were used in data analysis. The dose administered in dose group was entered into the program as mg/subject.
(§4) The following PK parameters were determined for NNI-362 plasma concentrations for each subject: observed maximal plasma concentration (Cmax), observed time to reach Cmax (Tmax), area under the plasma concentration time curve up to the last blood collection time (AUClast), and extrapolated to infinity (AUCinf), the percent of AUCinf that was extrapolated (% Extrap AUCinf), terminal elimination half-life (t1/2), and mean residence time to infinity (MRTinf). Terminal t1/2, AUCinf, MRTinf could not be calculated in some subjects due to limited data or poor fit (r<0.8) of the terminal phase of the plasma concentration and time curve. Extrapolation of more than 20% of the AUC may result in unreliable values for the terminal parameters.

Solubility of NNI-362 = type: physicochemical
[2] = Phase 1A pharmacokinetics of oral NNI-362 in lipid-based formulation (Cohorts F and G); type: in vivo, human; settings: for Extrap AUCinf / AUCinf / AUClast / Cmax / MRTinf / Tmax / t1/2 / AUC(0-inf) / AUC(0-t) / MRT inf / half-life: lipid formulation
Procedure: Exemplary Formulation F2 was prepared by slowly adding NNI-362 into a jar containing 100 mL of lipid-based MCT/Kolliphor EL/Beeswax (95/3/2% w/w) while mixing and then stirring until all powder is wet. The actual weight of NNI-362 was between 11.88 and 12.12 g to provide the nominal concentration of 120 mg/ml.
as §1, §2, §3, §4
The correlation coefficient for the terminal phase was determined using WinNonlin. Significant differences in selected pharmacokinetic parameters between the SAD and MAD dose groups of cohorts F and G were evaluated using the t-test (two tail, paired test; p<0.05).

[3] = 60 mg oral, SAD, individual subjects
[4] = 120 mg oral, SAD, individual subjects
[5] = human, plasma, 60 mg oral, SAD, individual subjects
[6] = human, plasma, 120 mg oral, SAD, individual subjects
[7] = Cohort F, 120 mg oral, MAD, individual subjects
[8] = Cohort F, 120 mg oral, SAD, individual subjects
[9] = Cohort G, 240 mg oral, MAD, individual subjects
[10] = Cohort G, 240 mg oral, SAD, individual subjects
[11] = human, plasma, po, 120 mg, Cohort F, 120 mg oral, MAD, cohort mean
[12] = human, plasma, po, 120 mg, Cohort F, 120 mg oral, SAD, cohort mean
[13] = human, plasma, po, 120 mg, Cohort F, 120 mg oral, SAD, individual subjects
[14] = human, plasma, po, 240 mg, Cohort G, 240 mg oral, MAD, cohort mean
[15] = human, plasma, po, 240 mg, Cohort G, 240 mg oral, SAD, cohort mean

- Cmax ([1]; 20 mg oral, MAD, individual subjects): 25.1 pg/mL
- AUClast [1, 3]: 623 pg·h/mL
- Cmax [1, 3]: 69.0 pg/mL and 46.8 pg/mL and 33.6 pg/mL
- Extrap AUCinf [1, 3]: 24.1%
- Tmax [1, 3]: 6 h and 24 h
- Cmax [1, 4]: 42.6 pg/mL and 60.1 pg/mL
- Extrap AUCinf [1, 4]: 54.5%
- Tmax [1, 4]: 6 h and 2 h
- plasma drug concentrations ([1]; Cohort B, 20 mg oral, two subjects, one plasma sample each): > 25 pg/mL
- AUC(0-inf) [1, 5]: 0.622 ng·h/mL
- MRT inf [1, 5]: 9.2 h
- half-life [1, 5]: 245 min
- AUC(0-inf) [1, 6]: 0.908 ng·h/mL
- MRT inf [1, 6]: 5.5 h
- half-life [1, 6]: 822 min
- Cmax ([1]; human, plasma, po, 20 mg, 20 mg oral, MAD, individual subjects, read-out: Cmax): 15.1 pg/mL
- Tmax ([1]; human, plasma, po, 20 mg, 20 mg oral, MAD, individual subjects, read-out: Tmax): 12 h
- AUC(0-t) ([1]; human, plasma, po, 60 mg, 60 mg oral, SAD, individual subjects): 0.473 ng·h/mL
- AUC(0-t) ([1]; human, plasma, po, 120 mg, 120 mg oral, SAD, individual subjects): 0.414 ng·h/mL
- Cmax ([1]; human, plasma, po, 120 mg, 120 mg oral, SAD, individual subjects, read-out: Cmax): 37 pg/mL
- solubility (Solubility of NNI-362; common organic solvents): soluble in common organic solvents
- solubility (Solubility of NNI-362; water/aqueous solutions): insoluble in water/aqueous solutions
- Extrap AUCinf ([2]; Cohort F, 120 mg oral, MAD, cohort mean): 30.0%
- Tmax [2, 7]: 6 h and 2 h and 8 h
- Extrap AUCinf ([2]; Cohort F, 120 mg oral, SAD, cohort mean): 43.8%
- AUCinf [2, 8]: 800 pg·h/mL and 511 pg·h/mL
- Extrap AUCinf [2, 8]: 36.9% and 29.9% and 64.5%
- MRTinf [2, 8]: 10.2 h and 12.4 h
- t1/2 [2, 8]: 6.15 h and 8.13 h
- Extrap AUCinf ([2]; Cohort G, 240 mg oral, MAD, cohort mean): 34.4%
- Tmax [2, 9]: 2 h and 6 h and 1 h
- Extrap AUCinf ([2]; Cohort G, 240 mg oral, SAD, cohort mean): 28.3%
- Extrap AUCinf [2, 10]: 14.4% and 51.1% and 19.3%
- MRTinf [2, 10]: 7.76 h and 36.9 h and 5.56 h
- Tmax [2, 10]: 2 h and 6 h and 1 h and 4 h
- t1/2 [2, 10]: 2.6 h and 2.30 h
- Concentration ([2]; Formulation F2, Cohort F, 120 mg single dose, Day 1, K3 EDTA human plasma, patient SRI-F-005, 0 h): < LLOQ
- Concentration ([2]; Formulation F2, Cohort F, 120 mg single dose, Day 1, K3 EDTA human plasma, patient SRI-F-005, 12 h): < LLOQ
- Concentration ([2]; Formulation F2, Cohort F, 120 mg single dose, Day 1, K3 EDTA human plasma, patient SRI-F-005, 24 h): < LLOQ
- Tmax ([2]; human, plasma, oral, range over Cohorts F and G, SAD and MAD, read-out: Tmax values): 0.5 to 8 h
- AUC(0-inf) [2, 11]: 3.43 ± 3.3 ng·h/mL
- AUC(0-t) [2, 11]: 1.68 ng·h/mL
- MRT inf [2, 11]: 19.2 ± 14.3 h
- half-life [2, 11]: 732 ± 612 min
- Cmax ([2]; human, plasma, po, 120 mg, Cohort F, 120 mg oral, MAD, cohort mean, read-out: Cmax): 0.129 ng/mL
- Cmax ([2]; human, plasma, po, 120 mg, Cohort F, 120 mg oral, MAD, cohort mean, read-out: Cmax after multiple doses): 0.129 ± 0.0673 ng/mL
- Tmax ([2]; human, plasma, po, 120 mg, Cohort F, 120 mg oral, MAD, cohort mean, read-out: Tmax): 4.33 h
- AUC(0-inf) [2, 12]: 0.59 ± 0.184 ng·h/mL
- AUC(0-t) [2, 12]: 0.559 ng·h/mL
- MRT inf [2, 12]: 9.99 ± 2.55 h
- half-life [2, 12]: 374 ± 110 min
- Cmax ([2]; human, plasma, po, 120 mg, Cohort F, 120 mg oral, SAD, cohort mean, read-out: Cmax): 0.0924 ± 0.0606 ng/mL
- Tmax ([2]; human, plasma, po, 120 mg, Cohort F, 120 mg oral, SAD, cohort mean, read-out: Tmax): 3.58 h
- AUC(0-inf) [2, 13]: 0.458 ng·h/mL
- MRT inf [2, 13]: 7.35 h
- half-life [2, 13]: 267 min
- AUC(0-inf) [2, 14]: 2.83 ± 1.96 ng·h/mL
- AUC(0-t) [2, 14]: 2.04 ng·h/mL
- MRT inf [2, 14]: 17.7 ± 13 h
- half-life [2, 14]: 702 ± 536 min
- Cmax ([2]; human, plasma, po, 240 mg, Cohort G, 240 mg oral, MAD, cohort mean, read-out: Cmax): 0.239 ± 0.23 ng/mL
- Tmax ([2]; human, plasma, po, 240 mg, Cohort G, 240 mg oral, MAD, cohort mean, read-out: Tmax): 3.17 h
- AUC(0-inf) [2, 15]: 1.32 ± 0.681 ng·h/mL
- AUC(0-t) [2, 15]: 0.585 ng·h/mL
- MRT inf [2, 15]: 16.7 ± 17.5 h
- half-life [2, 15]: 155 ± 15 min
- Cmax ([2]; human, plasma, po, 240 mg, Cohort G, 240 mg oral, SAD, cohort mean, read-out: Cmax): 0.099 ng/mL
- Tmax ([2]; human, plasma, po, 240 mg, Cohort G, 240 mg oral, SAD, cohort mean, read-out: Tmax): 2.83 h
- Cmax ([2]; human, plasma, po, 240 mg, Cohort G, 240 mg oral, SAD, cohort mean, read-out: mean Cmax): 0.099 ± 0.0639 ng/mL
- half-life ([2]; human, plasma, po, 240 mg, Cohort G, 240 mg oral, SAD, individual subjects): 168 min
- concentration at 0.5 h ([2]; oral, Formulation F2, Cohort F, 120 mg single dose, Day 1, K3 EDTA human plasma, patient SRI-F-005, 0.5 h): 0.0768 ng/mL
- concentration at 1 h ([2]; oral, Formulation F2, Cohort F, 120 mg single dose, Day 1, K3 EDTA human plasma, patient SRI-F-005, 1 h): 0.0834 ng/mL
- concentration at 2 h ([2]; oral, Formulation F2, Cohort F, 120 mg single dose, Day 1, K3 EDTA human plasma, patient SRI-F-005, 2 h): 0.0388 ng/mL
- concentration at 4 h ([2]; oral, Formulation F2, Cohort F, 120 mg single dose, Day 1, K3 EDTA human plasma, patient SRI-F-005, 4 h): 0.0253 ng/mL
- concentration at 6 h ([2]; oral, Formulation F2, Cohort F, 120 mg single dose, Day 1, K3 EDTA human plasma, patient SRI-F-005, 6 h): 0.0267 ng/mL
- concentration at 8 h ([2]; oral, Formulation F2, Cohort F, 120 mg single dose, Day 1, K3 EDTA human plasma, patient SRI-F-005, 8 h): 0.0263 ng/mL
Structure (SMILES): CCOc1ccccc1NC(=S)N1CCCN(c2nc3cc(C)c(C)cc3cc2C#N)CC1 [NNI-362]
- plasma concentrations of NNI-362 ([1]; Cohort A, single oral dose of 10 mg per subject, LLOQ 25 pg/ml): no plasma samples from these subjects contained quantifiable concentrations
- AUCinf [2, 7]: 1280 pg·h/mL and 3740 pg·h/mL and 8950 pg·h/mL and 719 pg·h/mL and 2440 pg·h/mL
- AUClast [2, 7]: 1150 pg·h/mL and 2680 pg·h/mL and 3800 pg·h/mL and 525 pg·h/mL and 1770 pg·h/mL and 179 pg·h/mL
- Cmax [2, 7]: 0.193 ng/mL and 0.144 ng/mL and 0.208 ng/mL and 0.0638 ng/mL and 0.126 ng/mL and 0.0404 ng/mL
- Extrap AUCinf [2, 7]: 9.78% and 28.4% and 57.5% and 26.9% and 27.7%
- MRTinf [2, 7]: 6.68 h and 19.3 h and 42.9 h and 9.7 h and 17.6 h
- AUClast [2, 8]: 555 pg·h/mL and 1210 pg·h/mL and 289 pg·h/mL and 561 pg·h/mL and 182 pg·h/mL
- Cmax [2, 8]: 0.101 ng/mL and 0.208 ng/mL and 0.0484 ng/mL and 0.0834 ng/mL and 0.0701 ng/mL and 0.0435 ng/mL
- Tmax [2, 8]: 6 h and 8 h and 2 h and 1 h and 4 h and 0.5 h
- AUCinf [2, 9]: 4520 pg·h/mL and 426 pg·h/mL and 4230 pg·h/mL and 3980 pg·h/mL and 975 pg·h/mL
- AUClast [2, 9]: 1990 pg·h/mL and 235 pg·h/mL and 4000 pg·h/mL and 2610 pg·h/mL and 2850 pg·h/mL and 569 pg·h/mL
- Cmax [2, 9]: 0.124 ng/mL and 0.059 ng/mL and 0.679 ng/mL and 0.221 ng/mL and 0.267 ng/mL and 0.0822 ng/mL
- Extrap AUCinf [2, 9]: 54.8% and 43.9% and 5.10% and 27.7% and 40.5%
- MRTinf [2, 9]: 39.5 h and 7.10 h and 9.51 h and 18.8 h and 13.5 h
- t1/2 [2, 9]: 26.2 h and 4.29 h and 5.10 h and 13.5 h and 9.24 h
- AUCinf [2, 10]: 790 pg·h/mL and 2090 pg·h/mL and 1090 pg·h/mL
- AUClast [2, 10]: 103 pg·h/mL and 677 pg·h/mL and 243 pg·h/mL and 1020 pg·h/mL and 880 pg·h/mL
- Cmax [2, 10]: 0.0523 ng/mL and 0.0316 ng/mL and 0.13 ng/mL and 0.0857 ng/mL and 0.0846 ng/mL and 0.21 ng/mL
